Results on five compounds are retold here after US5166200A, “Treatment of endometriosis” (Snow Brand Milk Products Company, Limited, priority 1990, dated 1992).

Data set [1] deals with estradiol (Ez). As to the kind of experiment: Test (1) serum estradiol (Ez) reduction, subcutaneous administration, PMSG-treated rats, radioimmunoassay. Format: in vivo, SD strain female rats. The settings on record: for Ez-reducing effect: compared with the control group, in both cases of subcutaneous administration (50 mg/kg) and oral administration (100 mg/kg, Test (2)); for Ez concentration in serum (average): subcutaneous, 50 mg/kg, 3 hours after administration, PMSG-treated rats, 5 per group, control (HPC) 0.572. As to the method:
(§1) In this Test Example, effects of administration of 6-OA and 6-enol ester compounds thereof on estradiol (Ez) reduction were examined.
20 SD strain female rats of 8-week old were used as test animals. They were divided into four groups each consisting of 5 rats. To all the rats was subcutaneously injected pregnant mare serum gonatropin (PMSG) in an amount of 100 IU/body once every other day (6 times in total). In the beforenoon of the next day of the final (6th) administration of PMSG, 0.5 ml of a solvent, 50 mg/kg of 6-OA, 50 mg/kg of 6-OAp and 50 mg/kg of 6-OAb were subcutaneously administered to group I (control group), group II, group III and group IV, respectively.
After 3 hours from the administration, the rats were subjected to abdomen opening under etherization and then to exsanguination from the main vein. The blood collected from each rat was subjected to serum separation, and the Ez in the serum was determined by radioimmunoassay.
A physiological saline solution containing 0.3% of hydroxy propyl cellulose (HPC) was used as the solvent. 6-OA, 6-OAp and 6-OAb were each suspended in the solvent in such a concentration that the administration amount of the resulting suspension per rat became 0.5 ml.

The subject of data set [2] is estradiol (Ez). Nature of the data set: Test (2) serum estradiol (Ez) reduction, oral administration, PMSG-treated rats, radioimmunoassay. Format: in vivo, SD strain female rats. The settings on record: 100 mg/kg, 6 hours after administration, 5 per group, control (HPC) 0.522. As to the method:
as §1
The type, age, number and grouping of test animals were the same as in Test (1).
All of the rats were subcutaneously injected with PMSG, in the same manner as in Test (1), in an amount of 100 IU/body once every other day (6 times in total).
Before noon of the next day of the final (6th) administration of PMSG, 0.5 ml of a solvent, 100 mg/kg of 6-OA, 100 mg/kg of 6-OAp and 100 mg/kg of 6-OAb were orally administered to group I (control group), group II, group III and group IV, respectively.
Aftr 6 hours from the administration, the rats were subjected to exsanguination. The blood collected from each rat was subjected to serum separation, and the Ez in the serum was determined by radioimmunoassay.
The solvent used was the same as in Test (1). 6-OA, 6-OAp and 6-OAb were each suspended in the solvent in such a concentration that the administration amount of the resulting suspension per rat became 0.5 ml.

The conditions of data set [3]: cited from earlier work.
For data set [4], the system named is experimental endometriosis. As to the kind of experiment: effect on model rats of endometriosis (cysts in endometrium autoplanted under renal capsule). The settings on record: 100 mg/kg/day. The class given is in vivo, SD strain female rats. The source says: In this Test example, effect of administration of 6-OAp on model rats of endometriosis was examined.
SD strain female rats of 7-week old weighing 170-210 g were used as test animals. In these rats, an endometrial segment (about 5 mm×5 mm) was removed from the left uterine horn and autoplanted under the left renal capsule, and formation of cysts in the transplanted endometrium was examined. Those rats which had developed cysts of 0.5-2.0 mm in height in the transplanted endometrium, were used for test.
The rats were divided into three groups. To group I (control group) was orally administered a physiological saline solution containing 0.3% of hydroxy propyl cellulose (HPC) daily in an amount of 0.5 ml/day. To group II was orally administered 6-OAp daily in an amount of 100 mg/kg/day. In this case, 6-OAp was suspended in a physiological saline solution containing 0.3% of HPC in such a concentration that the administration amount of the resulting suspension per rat became 0.5 ml. Group III (positive control) was subjected to ovary removal.
Each rat was subjected to abdomen opening after 3 weeks from the start of administration or after the ovary removal and examined for the presence of cysts.
Chi-square test was used for the statistical analysis of the test data obtained.

Data set [5] relates to aromatase (a steroidogenesis enzyme). The settings on record: known; Japanese Patent Application Laid-Open Nos. 192794/1988, 131193/1989; cited from earlier work.
Data set [6] in a line: animal toxicity tests (LD50).

By LD50 is commonly meant the dose expected to kill half of the subjects tested. Low readings indicate a more toxic substance, high ones a less toxic substance.

Entries after “also recorded” stand apart in the source; their conditions may differ. Like-named read-outs stand apart in the source and are kept apart here.

For the compound `C[C@]12CCC(=O)C=C1C(OC(=O)c1ccccc1)=C[C@@H]1[C@@H]2CC[C@]2(C)C(=O)CC[C@@]12O` [6-OAb], in the data set with estradiol (Ez) [1], the Ez-reducing effect entry is given as “strong Ez-reducing effect” and the “Ez concentration in serum (average)” value is 0.390 ng/mL. Moreover, the “Ez concentration in serum (average)” value with estradiol (Ez) [2] turned out to be 0.422 ng/mL.
`C#C[C@]1(O)CC[C@H]2[C@@H]3CCC4=Cc5oncc5C[C@]4(C)[C@H]3CC[C@@]21C` [danazol]: the side effects result in data set [3] (in vivo) is “dyshepatia, masculinization and the like”.
Turning to `CCNC(=O)[C@@H]1CCCN1C(=O)[C@H](CCCNC(=N)N)NC(=O)[C@H](CC(C)C)NC(=O)[C@@H](COC(C)(C)C)NC(=O)[C@H](Cc1ccc(O)cc1)NC(=O)[C@H](CO)NC(=O)[C@H](Cc1c[nH]c2ccccc12)NC(=O)[C@H](Cc1cnc[nH]1)NC(=O)[C@@H]1CCC(=O)N1` [buserelin], in data set [3] (treatment of endometriosis, prior art), the side effects result is “hyposexuality, hot flushes and the like”.
`CCC(=O)OC1=C[C@@H]2[C@H](CC[C@]3(C)C(=O)CC[C@@]23O)[C@@]2(C)CCC(=O)C=C12` [6-OAp, 14α-Hydroxy-androsta-4,6-diene-3,17-dione-6-propionate]: in the data set with estradiol (Ez) [1], the Ez-reducing effect entry was “strong Ez-reducing effect; also recorded: stronger Ez-reducing effect than the 6-OA group and the 6-OAb group”. The “Ez concentration in serum (average)” value came to 0.230 ng/mL in the data set on estradiol (Ez) [1] and 0.226 ng/mL in the data set on estradiol (Ez) [2]. In data set [4] (oral, 3 weeks, control 9%, ovary-removed 100, significant at 5% level relative to control group (Chi-square)), the “Disappearance (of cysts)” value is reported as 41%. In data set [4] (oral, 3 weeks, total 22 rats, control 2 of 22, significant at 5% level relative to control (Chi-square)), this compound showed a Cysts absent of 9 rats. In addition, in data set [4] (oral, 3 weeks, total 22 rats, control 20 of 22), the Cysts present is listed as 13 rats. For the same compound, the “effect on experimental endometriosis of rats” value in data set [4] (orally administered daily for 3 weeks) is “effective”.
Consider `C[C@]12CCC(=O)C=C1C(=O)C[C@@H]1[C@@H]2CC[C@]2(C)C(=O)CC[C@@]12O` [6-OA, 14α-Hydroxy-4-androstene-3,6,17-trione], for which, in the data set with estradiol (Ez) [1], the Ez-reducing effect entry is “strong Ez-reducing effect” and the “Ez concentration in serum (average)” value was 0.262 ng/mL. For the same compound, the “Ez concentration in serum (average)” value in the data set with estradiol (Ez) [2] is 0.291 ng/mL. Also, in data set [5], the aromatase-inhibitory activity entry is “strong aromatase-inhibitory activity”. Besides, in data set [6] (animal tests), the toxicity entry is reported as “very low toxicity”. In addition, in data set [6] (in vivo), the LD50 is greater than 2000 mg/kg.
